Laboratory results taken from patent EP1074549B1, “Tetrahydro-benzo(d)azepines and their use as antagonists at metabotropic glutamate receptors” (F. HOFFMANN-LA ROCHE AG, priority 1999, dated 2001).

How the values were obtained:
rat mGluR1a receptor [1] = target: T1, rat mGluR1a receptor (Rattus norvegicus, UniProt P23385); experiment: binding assay for the characterization of mGluR 1 antagonistic properties (tritiated radioligand displacement); settings: membranes from HEK 293 cells transfected with rat mGluR1a; tritiated 1-ethyl-2-methyl-6-oxo-4-(1,1,2-tritritio-1,2,4,5-tetrahydro-benzo[d]azepin-3-yl)-1,6-dihydro-pyrimidine-5-carbonitrile at 3 nM; 1 hour at room temperature; read-out: B-IC 50
T1 construct: expressed in transfected cells; host or cells: HEK 293 cells (transient transfection), membrane preparation
T1 sequence (P23385 19-1199): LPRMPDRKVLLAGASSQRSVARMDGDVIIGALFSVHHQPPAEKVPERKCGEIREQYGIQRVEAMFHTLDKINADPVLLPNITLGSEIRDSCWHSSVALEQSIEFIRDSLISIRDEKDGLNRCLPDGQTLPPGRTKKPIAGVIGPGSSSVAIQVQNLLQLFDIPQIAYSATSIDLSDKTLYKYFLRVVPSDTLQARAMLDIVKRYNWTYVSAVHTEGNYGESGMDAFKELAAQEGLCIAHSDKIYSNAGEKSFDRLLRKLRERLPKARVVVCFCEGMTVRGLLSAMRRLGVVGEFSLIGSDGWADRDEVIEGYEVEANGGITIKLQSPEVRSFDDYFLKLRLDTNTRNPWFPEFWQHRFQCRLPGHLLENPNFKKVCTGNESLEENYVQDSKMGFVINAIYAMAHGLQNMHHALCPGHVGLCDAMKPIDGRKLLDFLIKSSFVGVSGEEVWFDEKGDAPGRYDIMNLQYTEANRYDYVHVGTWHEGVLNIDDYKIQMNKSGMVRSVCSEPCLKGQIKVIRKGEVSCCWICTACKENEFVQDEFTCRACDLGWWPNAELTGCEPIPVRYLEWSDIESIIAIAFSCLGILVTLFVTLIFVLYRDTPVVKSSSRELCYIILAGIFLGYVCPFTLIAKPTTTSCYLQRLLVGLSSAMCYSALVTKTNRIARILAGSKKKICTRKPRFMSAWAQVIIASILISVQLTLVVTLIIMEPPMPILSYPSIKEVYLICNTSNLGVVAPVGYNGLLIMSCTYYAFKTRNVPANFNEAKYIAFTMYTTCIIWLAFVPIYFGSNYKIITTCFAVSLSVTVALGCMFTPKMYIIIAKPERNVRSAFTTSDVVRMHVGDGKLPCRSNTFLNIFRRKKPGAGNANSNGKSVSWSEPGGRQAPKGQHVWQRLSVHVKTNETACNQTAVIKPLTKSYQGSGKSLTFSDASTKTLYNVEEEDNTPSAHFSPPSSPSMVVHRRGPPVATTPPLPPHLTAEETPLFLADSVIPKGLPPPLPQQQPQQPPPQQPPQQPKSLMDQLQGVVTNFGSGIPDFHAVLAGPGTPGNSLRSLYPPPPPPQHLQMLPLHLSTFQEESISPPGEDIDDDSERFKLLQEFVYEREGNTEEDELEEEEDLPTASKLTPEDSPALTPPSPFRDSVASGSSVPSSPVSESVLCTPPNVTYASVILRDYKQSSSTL
Description: b) binding assay for the characterization of mGluR 1 antagonistic properties
Binding assay with tritiated 1-ethyl-2-methyl-6-oxo-4-(1,1,2-tritritio-1,2,4,5-tetrahydro-benzo[d]azepin-3-yl)-1,6-dihydro-pyrimidine-5-carbonitrile: HEK 293 cells were transiently transfected with the rat mGluR1a receptor. The cells were collected and washed 3 times with PBS. The cell pellets were frozen at -80 °C. Membranes were prepared from HEK 293 cells transfected with the rat mGluR1a receptor and used in the binding experiments at 10 µg proteins per assay after resuspension in a HEPES NaOH 20mM, pH=7.4 binding buffer. 1-Ethyl-2-methyl-6-oxo-4-(1,1,2-tritritio-1,2,4,5-tetrahydro-benzo[d]azepin-3-yl)-1,6-dihydro-pyrimidine-5-carbonitrile (S.A 33.4Ci/mmol) was used at 3 nM final concentration. The incubation with variable concentrations of potential inhibitors was performed for 1 hour at room temperature, the incubate was then filtered onto GF/B glass fiber filter preincubated 1 hour in PEI 0,1% and washed 3 times with 1ml of cold binding buffer. The radioactivity retained on the unifilter 96 was counted using a Topcount β counter. After correction for non specific binding the data were normalized and the IC50 value calculated using a 4 parameters logistic equation which was fitted to the inhibition curve.

rat mGluR1a receptor [2] = target: T1, rat mGluR1a receptor; experiment: functional assay for the characterization of mGluR 1 antagonistic properties ([Ca2+]i measurement, FLIPR); format: cell-based; settings: mGluR1a transfected HEK-EBNA cells; 10 µM glutamate as agonist; antagonists applied 5 minutes prior to agonist; read-out: F-IC 50
Description: a) functional assay for the characterization of mGluR 1 antagonistic properties
cDNA encoding rat mGluR1a receptor obtained from Prof. S. Nakanishi (Kyoto, Japan) was transiently transfected into HEK-EBNA cells using a procedure described by Schlaeger et. al., New Dev. New Appl. Anim. Cell Techn., Proc. ESACT Meet., 15th ( 1998), 105-112 and 117-120. [Ca^2+]i measurements were performed on mGluR1a transfected HEK-EBNA cells after incubation of the cells with Fluo-3 AM (0.5 µM final concentration) for 1 hour at 37 °C followed by 4 washes with assay buffer (DMEM supplemented with Hank's salt and 20 mM HEPES. [Ca^2+]i measurements were done using a fluorometric imaging plate reader (FLIPR, Molecular Devices Corporation, La Jolla, CA, USA). 10 µM glutamate as agonist was used to evaluate the potency of the antagonists.
Increasing concentrations of antagonists were applied to the cells 5 minutes prior to the application of the agonist. The inhibition (antagonists) curves were fitted with a four parameter logistic equation giving IC50, and Hill coefficient using the iterative nonlinear curve fitting software Origin (Microcal Software Inc., Northampton, MA, USA).

SMILES	IC50 (rat mGluR1a receptor [1]) [nM]	IC50 (rat mGluR1a receptor [2]) [nM]
Cc1nc(N2CCc3ccccc3CC2)c(C#N)c(=O)n1CC(F)(F)F [Example 78, 2-Methyl-6-oxo-4-(1,2,4,5-tetrahydro-benzo[d]azepin-3-yl)-1-(2,2,2-trifluoro-ethyl)-1,6-dihydro-pyrimidine-5-carbonitrile]	11	26
CCn1c(C)nc(N2CCc3ccc(F)cc3CC2)c([N+](=O)[O-])c1=O [Example 132, 3-Ethyl-6-(7-fluoro-1,2,4,5-tetrahydro-benzo[d]azepin-3-yl)-2-methyl-5-nitro-3H-pyrimidin-4-one]	80	14
N#Cc1c(N2CCc3ccccc3CC2)nc2n(c1=O)CCC2 [Example 126, 4-Oxo-2-(1,2,4,5-tetrahydro-benzo[d]azepin-3-yl)-4,6,7,8-tetrahydro-pyrrolo[1,2-a]pyrimidine-3-carbonitrile]	720	100
CCn1c(NC=O)nc(N2CCc3ccccc3CC2)c(C#N)c1=O [Example 154, N-[5-cyano-1-ethyl-6-oxo-4-(1,2,4,5-tetrahydro-benzo[d]azepin-3-yl)-1,6-dihydro-pyrimidin-2-yl]-formamide]	10	210
CCn1c(N)nc(N2CCc3ccccc3CC2)c(C#N)c1=O [Example 30, 2-Amino-1-ethyl-6-oxo-4-(1,2,4,5-tetrahydro-benzo[d]azepin-3-yl)-1,6-dihydro-pyrimidine-5-carbonitrile]	3	9
CCNc1nc(N2CCc3ccccc3CC2)c(C#N)c(=O)[nH]1 [Example 25, 2-Ethylamino-6-oxo-4-(1,2,4,5-tetrahydro-benzo[d]azepin-3-yl)-1,6-dihydro-pyrimidine-5-carbonitrile]	15	5
Cc1nc(N2CCc3ccccc3CC2)c([N+](=O)[O-])c(=O)n1CC(F)(F)F [Example 11, 2-Methyl-5-nitro-6-(1,2,4,5-tetrahydro-benzo[d]azepin-3-yl)-3-(2,2,2-trifluoro-ethyl)-3H-pyrimidin-4-one]	18	8
Cc1nc(N2CCc3ccccc3CC2)c(C#N)c(=O)[nH]1 [Example 17, 2-Methyl-6-oxo-4-(1,2,4,5-tetrahydro-benzo[d]azepin-3-yl)-1,6-dihydro-pyrimidine-5-carbonitrile]	330	88

The next lines start with the values.

IC50 (rat mGluR1a receptor [1]) [nM]	IC50 (rat mGluR1a receptor [2]) [nM]	SMILES
11	23	CSc1nc(N)nc(N2CCc3ccccc3CC2)c1C#N [Example 249, 2-Amino-4-methylsulfanyl-6-(1,2,4,5-tetrahydro-benzo[d]azepin-3-yl)-pyrimidine-5-carbonitrile]
7	200	N#Cc1c(OCC(F)(F)F)nc(NCCO)nc1N1CCc2ccccc2CC1 [Example 190, 2-(2-Hydroxy-ethylamino)-4-(1,2,4,5-tetrahydro-benzo[d]azepin-3-yl)-6-(2,2,2-trifluoro-ethoxy)-pyrimidine-5-carbonitrile]
20	120	CNn1c(C)nc(N2CCc3ccccc3CC2)c(C#N)c1=O [Example 214, 2-Methyl-1-methylamino-6-oxo-4-(1,2,4,5-tetrahydro-benzo[d]azepin-3-yl)-1,6-dihydro-pyrimidine-5-carbonitrile]
88	970	N#Cc1c(OCC(F)(F)F)nc(NCCCN2CCOCC2)nc1N1CCc2ccccc2CC1 [Example 174, 2-(3-Morpholin-4-yl-propylamino)-4-(1,2,4,5-tetrahydro-benzo[d]azepin-3-yl)-6-(2,2,2-trifluoro-ethoxy)-pyrimidine-5-carbonitrile]
2	38	Cc1nc(N2CCc3ccccc3CC2)c(C#N)c(=O)n1OCC(F)(F)F [Example 220, 2-Methyl-6-oxo-4-(1,2,4,5-tetrahydro-benzo[d]azepin-3-yl)-1-(2,2,2-trifluoro-ethoxy)-1,6-dihydro-pyrimidine-5-carbonitrile]
